Experimental data taken from US9895410B2, “Methods for preventing and treating oral cancers” (Cornell University, priority 2013, dated 2018).

Legend:
[1] = test system: mouse tongue tumors induced by 4-NQO; test: 4-NQO mouse model of oral carcinogenesis: gross tongue lesion multiplicity and severity grading; type: in vivo, mouse (C57BL/6)
Procedure: A mouse model of oral squamous cell carcinomas or oral cancers was developed by exposing the animals to the carcinogen 4-nitroquinoline 1-oxide (4-NQO) via drinking water.
(§1) Six-week old wild-type C57BL/6 female mice (purchased from the Jackson Laboratory) were used for this study. The mice were maintained on a normal chow (Lab-diet with constant nutrition, Lab-Diet Co, St. Louis, Mo.) and under controlled conditions with a 12 hour light/dark cycle. […] Mouse body weights and precancerous and cancerous lesions were monitored in the oral cavities at different times for up to 15 weeks, or until signs of sickness or weight loss. […]
(§2) Tissue dissection, lesion grade measurement, and pathological diagnosis. […] Gross lesions were identified and photographed, and visible cancerous lesions on the tongues were counted. The multiplicity of lesions (number of lesions per mouse) was assessed with a 10× magnification. The severity of gross lesions on the tongues was quantified by a grading system that included 0 (no lesion), 1 (mild lesion), 2 (intermediate lesion), 3 (severe lesion), and 4 (most severe lesion) in a double blinded manner. […]

[2] = test system: mouse tongue tumors induced by 4-NQO; test: 4-NQO mouse model: histological diagnosis of squamous neoplasia on H&E stained tongue sections; type: in vivo, mouse (C57BL/6); details: 4-NQO 10 weeks, then peptide 2.5 mg/kg/day s.c. 2 days/week for 15 weeks; four mice per group; 75% in 4-NQO+saline; p=0.07
Procedure: as §1, with “cycle. The mice were randomly divided into an experimental group in which mice received drinking water that contained 100 μg/ml 4-nitroquinoline 1-oxide (4-NQO) (Sigma, St. Louis, Mo.) and a control group in which mice received drinking water that contained propylene glycol (vehicle for 4-NQO). The treatment lasted for 10 weeks after which the mice received regular drinking water.” for “cycle.”
as §2

PCNA = test: Immunohistochemistry of mouse tongue sections for PCNA; type: in vivo, mouse (C57BL/6); details: 4-NQO + peptide vs 4-NQO+saline; tongue regions with and without visible lesions; four mice per group
Procedure: as §1, with “cycle. The mice were randomly divided into an experimental group in which mice received drinking water that contained 100 μg/ml 4-nitroquinoline 1-oxide (4-NQO) (Sigma, St. Louis, Mo.) and a control group in which mice received drinking water that contained propylene glycol (vehicle for 4-NQO). The treatment lasted for 10 weeks after which the mice received regular drinking water.” for “cycle.”
(§3) Immunohistochemistry. […] The sections were incubated with secondary antibodies (1:200, anti-mouse IgG from the M.O.M kit for p16; ready to use anti-rabbit IgG from the Invitrogen SuperPicture kit for Cox-2; and ready to use anti-mouse IgG from the Dako Envision™ HRP (DAB+) kit for mouse PCNA). […] Four to five representative areas of each mouse tongue section were photographed and analyzed.

p16 = test: Immunohistochemistry of mouse tongue sections for p16; type: in vivo, mouse (C57BL/6); details: peptide injections after 4-NQO treatment vs 4-NQO+saline; four mice per group
Procedure: as §1, with “cycle. The mice were randomly divided into an experimental group in which mice received drinking water that contained 100 μg/ml 4-nitroquinoline 1-oxide (4-NQO) (Sigma, St. Louis, Mo.) and a control group in which mice received drinking water that contained propylene glycol (vehicle for 4-NQO). The treatment lasted for 10 weeks after which the mice received regular drinking water.” for “cycle.”
as §3

PTGS2 = test: Immunohistochemistry of mouse tongue sections for PTGS2 (Cox-2); type: in vivo, mouse (C57BL/6); details: 4-NQO + peptide vs 4-NQO+saline; four mice per group
Procedure: as §1, with “cycle. The mice were randomly divided into an experimental group in which mice received drinking water that contained 100 μg/ml 4-nitroquinoline 1-oxide (4-NQO) (Sigma, St. Louis, Mo.) and a control group in which mice received drinking water that contained propylene glycol (vehicle for 4-NQO). The treatment lasted for 10 weeks after which the mice received regular drinking water.” for “cycle.”
as §3

[3] = test system: several mammalian cell types; details: energy-independent manner; cited from earlier work

Substance: D-Arg-2′,6′-Dmt-Lys-Phe-NH2
- average number of cancerous tongue lesions per mouse (multiplicity) ([1]; 4-NQO 100 μg/ml in drinking water 10 weeks, then peptide 2.5 mg/kg/day s.c. on 2 days each week for 15 weeks, 10 mice/group, p<0.05 vs 4-NQO+saline (6.5±2.9)): 3.3±2.2
- percentage of less severe tongue lesions of grades 0-2 ([1]; 4-NQO 10 weeks, then peptide 2.5 mg/kg/day s.c. 2 days/week for 15 weeks, grading 0-4, p<0.05 vs 4-NQO+saline (Fisher's exact test)): 100%
- percentage of mice that developed severe dysplasia, carcinoma in situ, and invasive carcinoma [2]: 25%
- PCNA positive cells in tongue epithelium (PCNA): obvious lower numbers of PCNA positive cells
- p16 protein levels in tongue epithelium (p16): greatly limited the 4-NQO-induced decrease in p16 protein levels
- PTGS2 protein levels in tongues (PTGS2): greatly reduced levels in PTGS2 protein

Substance: 2′,6′-Dmt-D-Arg-Phe-Lys-NH2
- penetration of the plasma membrane [3]: readily penetrates the plasma membrane
